Source: article PMC5500991, “Substituted arylsulphonamides as inhibitors of perforin-mediated lysis” (European Journal of Medicinal Chemistry, 2017)

What was measured:
recombinant perforin = molecular target: T1, recombinant perforin (Mus musculus, UniProt P10820); assay: Inhibition of perforin-mediated lysis of Jurkat cells (51Cr release); type: cell-based; conditions: recombinant perforin pre-incubated with compound 30 min; 51Cr-labelled Jurkat cells, 0.1% BSA, 4 h
T1 sequence (P10820 21-554): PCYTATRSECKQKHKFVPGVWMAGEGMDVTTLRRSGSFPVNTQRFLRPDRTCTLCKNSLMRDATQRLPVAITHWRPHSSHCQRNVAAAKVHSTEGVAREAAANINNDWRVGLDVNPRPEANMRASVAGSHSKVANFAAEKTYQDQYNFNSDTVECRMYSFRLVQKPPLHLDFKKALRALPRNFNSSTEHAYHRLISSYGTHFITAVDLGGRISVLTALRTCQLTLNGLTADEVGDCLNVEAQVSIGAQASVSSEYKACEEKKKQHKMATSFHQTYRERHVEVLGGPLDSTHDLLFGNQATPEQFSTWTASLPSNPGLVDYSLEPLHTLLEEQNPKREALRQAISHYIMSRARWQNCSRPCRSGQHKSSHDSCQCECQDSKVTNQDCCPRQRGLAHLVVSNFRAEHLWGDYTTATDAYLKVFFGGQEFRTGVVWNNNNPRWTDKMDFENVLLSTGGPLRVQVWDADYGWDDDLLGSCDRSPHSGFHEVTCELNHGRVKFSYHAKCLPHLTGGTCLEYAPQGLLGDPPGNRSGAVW
Excerpt: The supernatant was collected and assessed for its radioactive content on a gamma counter (Wallac Wizard 1470 automatic gamma counter).

[1] = Toxicity to KHYG1 NK cells (Trypan blue exclusion); type: cell-based, human; conditions: human, viability of KHYG1 NK cells after 24 h, n = 3
Experimental: The toxicity assay was carried out in exactly the same manner as the killing assay above, but instead of adding the labelled K562 target cells, 100 μL of RPMI 0.1% BSA was added. Cells were incubated for 4 h at 37 °C and then washed ×3 in RPMI + 0.1% BSA. […] Trypan blue was added to each well. Viable (clear) cells and total (clear + blue) cells were counted, and the percentage of viable cells was calculated compared to DMSO treated cell control (% viability).

[2] = molecular target: T2, perforin delivered by KHYG1 NK cells (Homo sapiens, UniProt P14222); assay: KHYG1 inhibitory assay: lysis of 51Cr-labelled K562 target cells by KHYG1 NK cells; type: cell-based; conditions: 51Cr-labelled K562 target cells co-incubated with KHYG1 human NK cells, vs untreated control; for inhibition at 10 µM: n = 4
T2 construct: The use of whole NK cells to deliver perforin provides a more realistic model of conditions in vivo; endogenous in cells; host or cells: KHYG1 human NK cells (effector); K562 leukemia target cells
T2 sequence (P14222 22-555): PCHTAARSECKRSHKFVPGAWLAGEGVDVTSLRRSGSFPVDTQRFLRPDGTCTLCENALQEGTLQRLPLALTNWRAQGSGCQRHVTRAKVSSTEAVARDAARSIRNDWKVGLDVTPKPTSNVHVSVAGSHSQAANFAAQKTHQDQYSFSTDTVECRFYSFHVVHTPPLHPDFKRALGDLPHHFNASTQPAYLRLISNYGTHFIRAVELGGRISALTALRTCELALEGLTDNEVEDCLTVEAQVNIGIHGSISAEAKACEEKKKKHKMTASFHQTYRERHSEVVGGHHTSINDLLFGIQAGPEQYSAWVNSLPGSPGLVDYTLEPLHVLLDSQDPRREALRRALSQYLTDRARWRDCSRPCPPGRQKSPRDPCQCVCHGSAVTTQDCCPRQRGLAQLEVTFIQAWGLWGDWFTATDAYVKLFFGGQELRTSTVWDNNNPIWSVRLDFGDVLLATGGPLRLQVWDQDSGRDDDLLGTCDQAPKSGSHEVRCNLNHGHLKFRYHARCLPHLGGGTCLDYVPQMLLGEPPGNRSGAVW
Experimental: The inhibitory function is then determined by identifying the number of untreated or inhibitor treated effector cells required to kill the same number of targets.

[3] = Stability in solution (water, 20 °C, 24 h); type: physicochemical; conditions: sodium salt, 24 h at 20 °C in water
Experimental: Test compounds were incubated (10 μM; < 2.5% DMSO in final concentration) in Milli Q water (n=3 tubes) at 20 °C for 24 h. (Eppendorf Thermomixer Comfort). Aliquots were collected (25 μL) just before the incubation (time “0 min”) and at 24 h. These samples were stored in a -80 °C freezer until the analysis by liquid chromatography with tandem mass spectrometry spectrometry (LC-MS/MS) – see next section for method development. Samples were thawed on wet ice on the day of assay. Thawed aliquots were mixed by vortex mixer, 10 μL of the sample transferred to a clean tube, 40 μL of ice cold acetonitrile added (containing internal standard compound), then centrifuged at 13,000 rpm for 5 min, 40 μL of clear supernatant transferred to an HPLC insert and mixed with 80 μL of 0.01% formic acid in water. Ten to 20 μL was injected onto the LC-MS/MS system. Results are based on the peak area ratio of drug to internal standard at time “0 h” (i.e. before the incubation and at the end i.e. “24 h”).

Microsome stability, rat = type: in vitro ADME; conditions: parent (as sodium salt) remaining after 30 min, rat microsomes
Experimental: (§1) Microsome stability was carried out at Cyprotex using pooled human liver microsomes (male and female), pooled rat liver microsomes (male, Sprague Dawley rats), pooled mouse liver microsomes (male CD-1 mice) which were either prepared or purchased from a reputable commercial supplier. […] The final incubation volume was 25 μL. A control incubation was included for each compound tested where 0.1 M phosphate buffer pH 7.4 was added instead of NADPH (minus NADPH). Two control compounds were included with each species. All incubations were performed singularly for each test compound. Each compound was incubated for 0, 5, 15, 30 and 45 min. The control (minus NADPH) was incubated for 45 min only. The reactions were stopped by the addition of 50 μL methanol containing internal standard at the appropriate time points. The incubation plates were centrifuged at 2,500 rpm for 20 min at 4 °C to precipitate the protein. Following precipitation, the sample supernatants were combined in cassettes of up to 4 compounds and analysed using Cyprotex generic LC-MS/MS conditions. From a plot of ln peak area ratio (compound peak area/internal standard peak area) against time, the percentage compound remaining at 30 min was calculated. Results that were > 100% of matched control were defined as 100%.

[4] = Solubility of the sodium salt in water; type: physicochemical; conditions: sodium salt in water at room temperature
Experimental: The compound was dissolved in water until it was no longer soluble in order to achieve a supersaturated concentration. The suspensions were sonicated for 15 min. prior to centrifugation at 13,000 revolutions per minute (rpm) for 6 minutes. Supernatants were removed and then recentrifuged prior to dilution of at least two fold in water to avoid precipitation during HPLC analysis.

[5] = Microsome stability, mouse; type: in vitro ADME; conditions: parent (as sodium salt) remaining after 30 min, mouse microsomes
Experimental: as §1

[6] = In vivo plasma pharmacokinetics in mice; conditions: mouse plasma, 10 mg/kg i.p. in 20% hydroxypropyl-β-cyclodextrin
Experimental: The in vivo PK parameters were measured for seven compounds selected on the basis of the in vitro assessment described above. Plasma pharmacokinetics were determined in male CD-1 mice for compounds 3, 10, 11, 26, 50, 58 and 59 (Table 6). Blood samples were collected at 5–8 time-points after dosing the compounds at 10 mg/kg in a solution of 20% hydroxypropyl-β-cyclodextrin by intraperitoneal (IP) injection. For analysis of the samples, chromatographic conditions were optimised by HPLC for each compound of interest and an internal standard. A liquid chromatography with tandem mass spectrometry (LC-MS/MS) method was then developed and validated for quantitation of each analyte.
PK studies were carried out in female C57BL/6J (female) mice using IP administration of test compound, dosing at 10 mg/kg in a solution of 20% hydroxypropyl-β-cyclodextrin. Mice (n=3 at each time point) were culled with excess inhalation of CO2 and blood collected by cardiac puncture at 5-8 time points after dosing in ice cold EDTA tubes. Plasma was separated by centrifuging at 6000 rpm for 5 min and stored at -80°C until analysis by LC-MS/MS. Frozen plasma was thawed on wet ice on the day of analysis. Ten μL of sample was transferred to a clean microcentrifuge tube and mixed with ice cold acetonitrile (40 μL containing internal standard) to precipitate the plasma proteins. The tubes were centrifuged at 13000 rpm for 5 min to obtain a clear supernatant which was mixed with 0.01% formic acid-water (1:2). Ten to twenty µL was injected into the LC-MS/MS to measure the analyte concentration in the sample. The samples were quantitated against a calibration curve of known analyte concentrations run in test species blank plasma (sourced from Innovative Research, USA). The concentration vs time data was then fitted into a pharmacokinetic software program (Phoenix WinNonlin v6.2) to calculate the PK parameters including T½, Cmax and AUC0-∞.

Row | Compound | melting point [°C] | Inhibition of Jurkat Cell Lysis IC50 (recombinant perforin) | viability at 24 h, 10 µM [1] [%] | inhibition at 10 µM [2] [%] | KHYG1 Inhibition (% at 10 μM) ([2]; n = 4, 10 µM) [%] | Stability in Solution (% parent remaining) [3] [%] | Microsome Stability (%) Rat (Microsome stability, rat) [%] | Solubility [4] | solubility at 15 min [4] [µg/mL] | Microsome Stability (%) Mouse [5] [%] | AUC0-∞ [6] [µM·h] | Cmax [6] [µM] | T1/2 [6] [h]
1 | CN1Cc2cc(-c3ccc(-c4ccc(NS(=O)(=O)c5ccc(F)cc5F)nc4)s3)ccc2C1=O [Compound 4, 2,4-Difluoro-N-(5-(5-(2-methyl-1-oxoisoindolin-5-yl)thiophen-2-yl)pyridin-2-yl)benzenesulfonamide] | 269 to 272 | activity is abolished |  |  |  |  |  |  |  |  |  |  | 
2 | CN1Cc2cc(-c3ccc(-c4cncc(NC(=O)c5ccc(F)cc5F)c4)s3)ccc2C1=O [Compound 8, 2,4-Difluoro-N-(5-(5-(2-methyl-1-oxoisoindolin-5-yl)thiophen-2-yl)pyridin-3-yl)benzamide] | 267 to 269 | complete loss of potency |  |  |  |  |  |  |  |  |  |  | 
3 | Cc1ccc(NS(=O)(=O)c2ccc(F)cc2F)cc1-c1ccc(-c2ccc3c(c2)CN(C)C3=O)s1 [Compound 13, 2,4-Difluoro-N-(4-methyl-3-(5-(2-methyl-1-oxoisoindolin-5-yl)thiophen-2-yl)phenyl)benzenesulfonamide] | 268 to 271 | complete loss of potency | 91.7 ± 10 | 50 | 50.3 ± 8.5 |  |  |  |  |  |  |  | 
4 | CN1Cc2cc(-c3ccc(-c4cncc(NS(=O)(=O)c5c(F)cc(F)cc5F)c4)s3)ccc2C1=O [Compound 26, 2,4,6-Trifluoro-N-(5-(5-(2-methyl-1-oxoisoindolin-5-yl)thiophen-2-yl)pyridin-3-yl)benzenesulfonamide] |  |  | 95.1 ± 2.1 | 81.3 ± 6.3 |  | 88 | 83 | highly soluble | 10700 | 100 | 1019 | 124 | 4.5
5 | CN1Cc2cc(-c3ccc(-c4cncc(NS(=O)(=O)c5ccccc5C(F)(F)F)c4)s3)ccc2C1=O [Compound 44, N-(5-(5-(2-Methyl-1-oxoisoindolin-5-yl)thiophen-2-yl)pyridin-3-yl)-2-(trifluoromethyl)benzenesulfonamide] |  |  | 100 | 85 ± 5.6 |  | 92 | 49 | negative impact on solubility | 88 | 84 |  |  | 
6 | CN1Cc2cc(-c3ccc(-c4cncc(NS(=O)(=O)c5cccc(C(F)(F)F)c5)c4)s3)ccc2C1=O [Compound 45, N-(5-(5-(2-Methyl-1-oxoisoindolin-5-yl)thiophen-2-yl)pyridin-3-yl)-3-(trifluoromethyl)benzenesulfonamides] |  |  | 100 | 88.8 ± 1.9 |  |  | 80 | negative impact on solubility | 574 | 97 |  |  | 
7 | CN1Cc2cc(-c3ccc(-c4cncc(NS(=O)(=O)c5cccc(C#N)c5)c4)s3)ccc2C1=O [Compound 49, 3-Cyano-N-(5-(5-(2-methyl-1-oxoisoindolin-5-yl)thiophen-2-yl)pyridin-3-yl)benzenesulfonamide] | 282 to 285 | poor activity | 94.4 ± 7.1 | 83.7 ± 3.2 |  |  |  |  |  |  |  |  | 
8 | CN1Cc2cc(-c3ccc(-c4cncc(NS(=O)(=O)c5ccc(C#N)cc5)c4)s3)ccc2C1=O [Compound 50, 4-Cyano-N-(5-(5-(2-methyl-1-oxoisoindolin-5-yl)thiophen-2-yl)pyridin-3-yl)benzenesulfonamide] |  |  | 99.3 ± 0.3 | 75 ± 7.8 |  | 85 | 64 | highly soluble | 12900 | 87 | 642 | 87 | 3.3
9 | CN1Cc2cc(-c3ccc(-c4cncc(NS(=O)(=O)c5ccc([N+](=O)[O-])cc5)c4)s3)ccc2C1=O [Compound 59, N-(5-(5-(2-Methyl-1-oxoisoindolin-5-yl)thiophen-2-yl)pyridin-3-yl)-4-nitrobenzenesulfonamide] |  |  | 85 ± 12 | 77.5 ± 5.6 |  |  | 72 |  | 1680 | 85 | 383 | 64 | 2.2
